Assay results taken from ChEMBL document CHEMBL1142398, “Chemical stability of the peroxide bond enables diversified synthesis of potent tetraoxane antimalarials” (J Med Chem, 2008).

Columns and labels:
[1] = tested on: Plasmodium falciparum; assay: microbe, parasite or virus in culture; conditions: D6
Description: Antimalarial activity against Plasmodium falciparum D6

[2] = tested on: Plasmodium berghei; assay: Antimalarial activity against Plasmodium berghei KBG173 infected CD1 mice (Mus musculus) at 9.3 mg/kg/day subcutaneous dose as survival time after 3-5 days; format: functional
[3] = Metabolic stability assessed as half life in human liver microsomes; format: ADME, Microsome
[4] = tested on: Plasmodium berghei; assay: Antimalarial activity against Plasmodium berghei KBG173 infected CD1 mice (Mus musculus) at 150 mg/kg/day subcutaneous dose as survival time after 3-5 days; format: functional
[5] = tested on: Plasmodium berghei; assay: Antimalarial activity against Plasmodium berghei KBG173 infected CD1 mice (Mus musculus) at 300 mg/kg/day subcutaneous dose as survival time after 3-5 days; format: functional
[6] = tested on: Plasmodium berghei; assay: Antimalarial activity against Plasmodium berghei KBG173 infected CD1 mice (Mus musculus) at 37.5 mg/kg/day subcutaneous dose as survival time after 3-5 days; format: functional
[7] = tested on: Plasmodium berghei; assay: Antimalarial activity against Plasmodium berghei KBG173 infected CD1 mice (Mus musculus) on subcutaneous dose after 3-5 days; format: functional
[8] = tested on: Plasmodium falciparum; assay: microbe, parasite or virus in culture; conditions: W2
Description: Antimalarial activity against Plasmodium falciparum W2

[9] = tested on: Plasmodium falciparum; assay: microbe, parasite or virus in culture; conditions: TM91C235
Description: Antimalarial activity against multidrug-resistant Plasmodium falciparum TM91C235

[10] = Metabolic stability assessed as half life in mouse liver microsomes; format: ADME, Microsome
[11] = tested on: Plasmodium berghei; assay: Antimalarial activity against Plasmodium berghei KBG173 infected CD1 mice (Mus musculus) at 320 mg/kg/day peroral dose as survival time after 3-5 days; format: functional; conditions: route oral
[12] = tested on: Plasmodium berghei; assay: Antimalarial activity against Plasmodium berghei KBG173 infected CD1 mice (Mus musculus) at 20 mg/kg/day peroral dose as survival time after 3-5 days; format: functional; conditions: route oral
[13] = tested on: Plasmodium berghei; assay: Antimalarial activity against Plasmodium berghei KBG173 infected CD1 mice (Mus musculus) at 80 mg/kg/day peroral dose as survival time after 3-5 days; format: functional; conditions: route oral
[14] = tested on: 786-0; assay: Antiproliferative activity against human 786-0 cells after 48 hrs; format: functional; conditions: 786-0, 48 h
[15] = tested on: SR; assay: Antiproliferative activity against human SR cells after 48 hrs; format: functional
[16] = tested on: PC-3; assay: Antiproliferative activity against human PC3 cells after 48 hrs; format: functional; conditions: PC-3, 48 h
[17] = tested on: UO-31; assay: Antiproliferative activity against human UO31 cells after 48 hrs; format: functional; conditions: UO-31, 48 h
[18] = tested on: EKVX; assay: Antiproliferative activity against human EKVX cells after 48 hrs; format: functional
[19] = tested on: CCRF-CEM; assay: Antiproliferative activity against human CCRF-CEM cells after 48 hrs; format: functional
[20] = tested on: U-251; assay: Antiproliferative activity against human U251 cells after 48 hrs; format: functional; conditions: U-251, 48 h
[21] = tested on: DU-145; assay: Antiproliferative activity against human DU145 cells after 48 hrs; format: functional; conditions: DU-145, 48 h
[22] = Antiproliferative activity against human HL60(TB) cells after 48 hrs; format: functional, HL-60(TB); conditions: HL-60, 48 h
[23] = tested on: MOLT-4; assay: Antiproliferative activity against human MOLT4 cells after 48 hrs; format: functional; conditions: MOLT-4, 48 h
[24] = tested on: HOP-92; assay: Antiproliferative activity against human HOP92 cells after 48 hrs; format: functional; conditions: HOP-92, 48 h
[25] = tested on: SF-539; assay: Antiproliferative activity against human SF539 cells after 48 hrs; format: functional; conditions: SF-539, 48 h
[26] = tested on: NCI-H460; assay: Antiproliferative activity against human NCI-H460 cells after 48 hrs; format: functional; conditions: NCI-H460, 48 h
[27] = tested on: T47D; assay: Antiproliferative activity against human T47D cells after 48 hrs; format: functional
[28] = tested on: IGROV-1; assay: Antiproliferative activity against human IGROV1 cells after 48 hrs; format: functional; conditions: IGROV-1, 48 h
[29] = tested on: SK-MEL-2; assay: Antiproliferative activity against human SKMEL2 cells after 48 hrs; format: functional; conditions: SK-MEL-2, 48 h
[30] = tested on: SF-295; assay: Antiproliferative activity against human SF295 cells after 48 hrs; format: functional; conditions: SF-295, 48 h
[31] = tested on: LOX IMVI; assay: Antiproliferative activity against human LOXIMVI cells after 48 hrs; format: functional
[32] = tested on: NCI/ADR-RES; assay: Antiproliferative activity against human NCI/ADR-RES cells after 48 hrs; format: functional
[33] = read-out: LC50 (the source's name)

For `C1CCC(NCC2CCC3(CC2)OOC2(CCCCC2)OO3)CC1`, the IC50 [1] was 0.0112 µM, the IC90 [1] was 0.014 µM and the Survival [2] was 13.4 days. For the same compound, the half-life [3] was 15.9 min, the Survival [4] was 29 days and the Survival [5] was >31 days. The Survival [6] was 22.6 days, the MCD [7] was “<=37.5 mg/kg/day” and the IC50 [8] was 0.00617 µM. The IC90 [8] was 0.0177 µM, the IC50 [9] was 0.0108 µM and the IC90 [9] was 0.0139 µM. The half-life [10] was 43.9 min.
With `NCC1CCC2(CC1)OOC1(CCCCC1)OO2` the IC50 [1] was 0.0128 µM, the IC90 [1] was 0.0241 µM and the Survival [2] was 16.6 days. For the same compound, the Survival [4] was >31 days, the Survival [5] was >31 days and the Survival [6] was 24.6 days. The MCD [7] was “<=37.5 mg/kg/day”, the IC50 [8] was 0.00779 µM and the IC90 [8] was 0.016 µM. It also gave an IC50 [9] of 0.0198 µM and an IC90 [9] of 0.029 µM.
In the case of `CN(C)CCNC(=O)C1CCC2(CC1)OOC1(CCCCC1)OO2`, the IC50 [1] is reported as 0.0112 µM, the IC90 [1] is reported as 0.0151 µM and the half-life [3] is reported as > 60 min. It also gave a Survival [11] of 17.4 days, a Survival [12] of 7.2 days and an IC50 [8] of 0.00972 µM. The IC90 [8] was 0.0179 µM, the IC50 [9] was 0.00724 µM and the IC90 [9] was 0.0128 µM. The Survival [13] was 7.6 days and the half-life [10] was > 60 min.
In the case of `C[C@H](CCCO)[C@H]1CC[C@H]2[C@@H]3[C@H](O)C[C@@H]4CC5(CC[C@]4(C)[C@H]3C[C@H](O)[C@]12C)OOC1(CCCCC1)OO5`, the IC50 [1] is reported as 0.13 µM, the IC90 [1] is reported as 0.623 µM and the GI50 [14] is reported as 0.23 µM. For the same compound, the TGI [14] was 0.54 µM, the CC50 [14, 33] was 2.01 µM and the GI50 [15] was 0.16 µM. The TGI [15] was 0.34 µM, the CC50 [15, 33] was 0.72 µM and the GI50 [16] was 0.29 µM. The TGI [16] was 0.99 µM, the CC50 [16, 33] was 3.41 µM and the GI50 [17] was 0.04 µM. The TGI [17] was 0.17 µM, the CC50 [17, 33] was 0.61 µM and the GI50 [18] was 0.14 µM. The TGI [18] was 0.31 µM, the CC50 [18, 33] was 0.65 µM and the GI50 [19] was 0.1 µM. It also gave a TGI [19] of 0.24 µM, a CC50 [19, 33] of 0.56 µM and a GI50 [20] of 0.21 µM. It also gave a TGI [20] of 0.46 µM, a CC50 [20, 33] of 0.98 µM and a GI50 [21] of 0.11 µM. For the same compound, the TGI [21] was 0.23 µM, the CC50 [21, 33] was 0.48 µM and the GI50 [22] was 0.15 µM. It also gave a TGI [22] of 0.31 µM, a CC50 [22, 33] of 0.62 µM and an IC50 [8] of 0.109 µM. For the same compound, the IC90 [8] was 0.298 µM, the GI50 [23] was 0.18 µM and the TGI [23] was 0.41 µM. It also gave a CC50 [23, 33] of 0.96 µM, a GI50 [24] of 0.14 µM and a TGI [24] of 0.32 µM. For the same compound, the CC50 [24, 33] was 0.73 µM, the GI50 [25] was 0.17 µM and the TGI [25] was 0.32 µM. The CC50 [25, 33] was 0.59 µM, the GI50 [26] was 0.24 µM and the TGI [26] was 0.62 µM. The CC50 [26, 33] was 2.68 µM, the GI50 [27] was 0.33 µM and the TGI [27] was 0.93 µM. The CC50 [27, 33] was 5.3 µM, the GI50 [28] was < 0.01 µM and the TGI [28] was 0.01 µM. For the same compound, the CC50 [28, 33] was 0.06 µM, the IC50 [9] was 0.166 µM and the IC90 [9] was 0.34 µM. It also gave a GI50 [29] of 0.2 µM, a TGI [29] of 0.39 µM and a CC50 [29, 33] of 0.73 µM. It also gave a GI50 [30] of 0.17 µM, a TGI [30] of 0.33 µM and a CC50 [30, 33] of 0.66 µM. It also gave a GI50 [31] of 0.02 µM, a TGI [31] of 0.03 µM and a CC50 [31, 33] of 0.06 µM. For the same compound, the GI50 [32] was 0.25 µM, the TGI [32] was 0.59 µM and the CC50 [32, 33] was 4.27 µM.
